Patent publication US6362212B1, “Oxime derivative and bactericide containing the same as active ingredient” (Shionogi & Company, Ltd., priority 1994, dated 2002)

Tests used:
Sphaerotheca fuliginea = experiment: Controlling effect on Sphaerotheca fuliginea by foliage application (pot experiment); format: in vivo; conditions: foliage spray on cucumber (cv. TSUKUBASHIROIBO) first leaves, infected area after 10 days in greenhouse at 20° C.
Procedure: The following Test Examples illustrate the effects of the fungicide of the present invention. (I. Controlling effects on various plant diseases by foliage application (pot experiment)) A test compound was dissolved in a small amount of N,N-dimethylformamide, and the solution was diluted to a given concentration with distilled water containing a spreader. Thus, a liquid sample to be tested was prepared. The liquid sample was sprayed to test plants, and 24 hours thereafter, pathogens were inoculated by the method described below. […] Seeds of cucumber ([…]) were sown in plastic cups (each 9 cm in diameter), followed by cultivation for 2 to 3 weeks. The liquid test sample in the form of a solution or suspension was sprayed on the surface of their first leaves. The pathogen was inoculated to the leaves by spraying a conidia suspension of Sphaerotheca fuliginea which had been cultured on the cucumber leaves. After the inoculation, the plants were kept in a greenhouse at 20° C. for 10 days. Then, the infected area on the leaf was observed, and the percent control was calculated.

[1] = test system: Erysiphe graminis f. sp. tritici; experiment: Controlling effect on Erysiphe graminis f. sp. tritici by foliage application (pot experiment); format: in vivo; conditions: foliage spray on wheat (cv. NORIN No. 61) seedlings, infected area after 10 days in greenhouse at 20° C.
Procedure: The following Test Examples illustrate the effects of the fungicide of the present invention. (I. Controlling effects on various plant diseases by foliage application (pot experiment)) A test compound was dissolved in a small amount of N,N-dimethylformamide, and the solution was diluted to a given concentration with distilled water containing a spreader. Thus, a liquid sample to be tested was prepared. The liquid sample was sprayed to test plants, and 24 hours thereafter, pathogens were inoculated by the method described below. […] The seeds of wheat (cv.: NORIN No. 61) were sown in plastic cups (each 9 cm in diameter), followed by cultivation for 2 to 3 weeks. The test compound in the form of a solution or suspension was sprayed to the seedlings, and conidia of Erysiphe graminis f. sp. tritici cultured on wheat leaves were dropped on the test plants to inoculate the plants with the pathogen. After the inoculation, the plants were kept in a greenhouse at 20° C. for 10 days. The infected area on the leaf was observed, and the percent control was calculated.

Row | Compound | Controlling effect on Sphaerotheca fuliginea by foliage application at 500 ppm (percent control) (Sphaerotheca fuliginea) | Controlling effect on ErYsiphe graminis f. sp. tritici by foliage application at 500 ppm (percent control) [1]
1 | CON=C(C1=NCCN1C)c1ccccc1Oc1ccccc1 (mixture of isomers) [compound 1161] | 70 percent control | 90 percent control
2 | CON=C(C1=NCCS1)c1ccccc1Oc1ccccc1 (mixture of isomers) [compound 1515] | 70 percent control | 90 percent control
3 | CCON=C(c1ccon1)c1ccccc1COc1ccccc1C (mixture of isomers) [compound 1665] | – | 70 percent control
4 | C=CCON=C(c1ccon1)c1ccccc1COc1ccccc1C (mixture of isomers) [compound 1667] | – | 70 percent control
5 | CON=C(c1ccccc1COc1ccccc1)c1nccn1C (single isomer, unassigned) [101A] | 70 percent control | –
6 | CON=C(c1ccccc1COc1ccc(F)cc1)c1nccn1C (single isomer, unassigned) [104A] | 97 percent control | 90 percent control
7 | CON=C(c1ccccc1COc1ccc(F)cc1)c1nccn1C (single isomer, unassigned) [104B] | – | 70 percent control
8 | CON=C(c1ccccc1COc1ccccc1C)c1nccn1C (single isomer, unassigned) [112B] | 90 percent control | –
9 | CON=C(c1ccccc1COc1cccc(C)c1)c1nccn1C (single isomer, unassigned) [113B] | 90 percent control | –
10 | CON=C(c1ccccc1COc1cccc(C(F)(F)F)c1)c1nccn1C (single isomer, unassigned) [122B] | 100 percent control | –
11 | CON=C(c1ccccc1COc1cc(Cl)ccc1Cl)c1nccn1C (single isomer, unassigned) [131B] | 100 percent control | –
12 | CON=C(c1ccccc1COc1ccc(-c2ccccc2)cc1)c1nccn1C (single isomer, unassigned) [144B] | 70 percent control | –
13 | CON=C(c1cc(C)no1)c1ccccc1COc1ccccc1Cl (single isomer, unassigned) [605B] | 100 percent control | 90 percent control
14 | CON=C(c1cc(C)no1)c1ccccc1COc1ccc(Cl)cc1C (single isomer, unassigned) [641B] | 100 percent control | 90 percent control
15 | CON=C(c1ncon1)c1ccccc1COc1cc(C)ccc1C (single isomer, unassigned) [836A] | 100 percent control | 97 percent control
16 | CON=C(c1ncon1)c1ccccc1COc1cc(C)ccc1C (single isomer, unassigned) [836B] | 100 percent control | 97 percent control
17 | CON=C(c1noc(C)n1)c1ccccc1COc1cc(C)ccc1C (single isomer, unassigned) [936B] | 97 percent control | 90 percent control
18 | CON=C(C1=NCCN1C)c1ccccc1COc1cccc(C(F)(F)F)c1 (single isomer, unassigned) [1122A] | – | 70 percent control

Row | Compound | Controlling effect on Sphaerotheca fuliginea by foliage application at 500 ppm (percent control) (Sphaerotheca fuliginea) | Controlling effect on ErYsiphe graminis f. sp. tritici by foliage application at 500 ppm (percent control) [1]
19 | CON=C(C1=NCCN1C)c1ccccc1COc1cccc(C(F)(F)F)c1 (single isomer, unassigned) [1122B] | 100 percent control | 90 percent control
20 | CON=C(C1=NCCO1)c1ccccc1Oc1ccccc1 (single isomer, unassigned) [1341A] | 70 percent control | 90 percent control
21 | CON=C(C1=NCCO1)c1ccccc1Oc1ccccc1 (single isomer, unassigned) [1341B] | 70 percent control | 90 percent control
22 | CON=C(c1ccccc1COc1cc(C)ccc1C)c1ccnn1C (single isomer, unassigned) [1554B] | – | 70 percent control
23 | CON=C(c1ccco1)c1ccccc1COc1cc(C)ccc1C (single isomer, unassigned) [1634B] | 70 percent control | –
24 | CCON=C(c1ccccc1COc1ccccc1)n1cnc(C)c1 [compound 235] | – | 90 percent control
25 | CON=C(c1ccccc1COc1ccccc1Cl)n1cncn1 [compound 265] | – | 70 percent control
26 | CON=C(c1ccccc1COc1cc(C)ccc1C)n1cccn1 [compound 294] | 97 percent control | –
27 | CON=C(c1ncon1)c1ccccc1COc1ccccc1Cl [compound 805] | 97 percent control | –
28 | CON=C(C1=NCCN1C)c1ccccc1COc1ccccc1 [compound 1101] | – | 90 percent control
29 | CON=C(C1=NCCO1)c1ccccc1COc1ccccc1Cl [compound 1305] | 70 percent control | –
30 | CON=C(C1=NCCO1)c1ccccc1COc1ccc(C)cc1 [compound 1312] | 70 percent control | –
31 | CON=C(C1=NCCN1)c1ccccc1COc1ccccc1Cl [compound 1455] | – | 70 percent control
32 | CON=C(c1ncno1)c1ccccc1COc1cc(C)ccc1C [compound 1590] | 70 percent control | –
33 | CON=C(c1cc(C)ns1)c1ccccc1COc1cc(C)ccc1C [compound 1654] | – | 70 percent control
34 | CON=C(C1=NCCO1)c1ccccc1Oc1ccc(C(F)(F)F)cn1 [compound 1826] | 70 percent control | –
35 | CON=C(C1=NCCO1)c1ccccc1Oc1ncc(C(F)(F)F)cc1Cl [compound 1829] | – | 90 percent control
36 | CON=C(c1noc(C)n1)c1cc(Cl)ccc1Oc1ccc(C(F)(F)F)cn1 [compound 2120] | 70 percent control | –
